According to the NIST ThermoML archive (doi:10.1021/je400659p):
± gives the expanded uncertainty stated by the source.

Key:
[1] = xn = mol fraction of the nth substance listed; conditions: 101 kPa, Liquid, Vibrating tube method
[2] = refractive index (Na D-line) (dimensionless); xn = mol fraction of the nth substance listed; conditions: 101 kPa, Liquid, Standard Abbe refractometry

CCn1cc[n+](C)c1.F[B-](F)(F)F [1-ethyl-3-methylimidazolium tetrafluoroborate] + OCCO
Conditions	mass density, 343.15 K [kg/m3]	mass density, 353.15 K [kg/m3]	refractive index, 298.15 K	refractive index, 303.15 K	refractive index, 313.15 K	refractive index, 323.15 K
[1], x1 = 0.1249	1123.78 ± 0.25	1116.15 ± 0.24	–	–	–	–
[1], x1 = 0.2084	1145.48 ± 0.28	1137.77 ± 0.27	–	–	–	–
[1], x1 = 0.3046	1166.65 ± 0.35	1158.94 ± 0.35	–	–	–	–
[1], x1 = 0.4124	1185.76 ± 0.46	1178.1 ± 0.45	–	–	–	–
[1], x1 = 0.4763	1195.68 ± 0.53	1188.07 ± 0.52	–	–	–	–
[1], x1 = 0.5565	1206.88 ± 0.63	1199.33 ± 0.62	–	–	–	–
[1], x1 = 0.717	1226.11 ± 0.87	1218.68 ± 0.86	–	–	–	–
[1], x1 = 0.7826	1233.11 ± 0.98	1225.73 ± 0.96	–	–	–	–
[1], x1 = 0.901	1244.49 ± 1.2	1237.16 ± 1.2	–	–	–	–
[1], x1 = 1	1253.18 ± 1.4	1245.87 ± 1.4	–	–	–	–
[2], x1 = 0.1249	–	–	1.4239 ± 0.0004	1.4224 ± 0.0004	1.4199 ± 0.0004	1.4174 ± 0.0004
[2], x1 = 0.2084	–	–	1.4206 ± 0.0004	1.4192 ± 0.0004	1.4167 ± 0.0004	1.4142 ± 0.0004
[2], x1 = 0.3046	–	–	1.4176 ± 0.0004	1.4163 ± 0.0004	1.4136 ± 0.0004	1.4111 ± 0.0004
[2], x1 = 0.4124	–	–	1.4151 ± 0.0004	1.4138 ± 0.0004	1.411 ± 0.0004	1.4085 ± 0.0004
[2], x1 = 0.4763	–	–	1.414 ± 0.0004	1.4127 ± 0.0004	1.4099 ± 0.0004	1.4074 ± 0.0004
[2], x1 = 0.5565	–	–	1.413 ± 0.0004	1.4117 ± 0.0004	1.4089 ± 0.0004	1.4064 ± 0.0004
[2], x1 = 0.717	–	–	1.412 ± 0.0005	1.4105 ± 0.0005	1.4079 ± 0.0005	1.4054 ± 0.0005
[2], x1 = 0.7826	–	–	1.4118 ± 0.0005	1.4103 ± 0.0005	1.4077 ± 0.0005	1.4054 ± 0.0005
[2], x1 = 0.901	–	–	1.4115 ± 0.0005	1.4101 ± 0.0005	1.4076 ± 0.0005	1.4053 ± 0.0005
[2], x1 = 1	–	–	1.4111 ± 0.0005	1.41 ± 0.0005	1.4073 ± 0.0005	1.4051 ± 0.0005
